According to patent US20230124969A1, “OPHTHALMIC FORMULATION COMPRISING N-[5-(AMINOSULFONYL)-4-METHYL-1,3- THIAZOL-2-YL]-N-METHYL-2-[4-(2-PYRIDINYL)PHENYL]ACETAMIDE HEMIHYDRATE” (AiCuris GmbH & Co. KG, priority 2020, published 2023):
Read-outs that look alike come from different tables or passages of the source.

What was measured:
Type in all cases: physicochemical
[1] = Sterile filtration / filter compatibility: HPLC assay before and after filtration; details: for assay data before and after filtration: Example 3, 0.05 mg/mL DS, PEG200 stock diluted in GenTeal tears
Experimental: • Dilute 500 µL of each sample with 500 µL ACN/MeOH/H2O ratio 25:25:50 + 1% HAc (1:2) • Mix it 5 s by vortexing
• Dilute 250 µL of each sample with 730 µL ACN/MeOH/H2O ratio 25:25:50 + 1% HAc and add 20 µL ACN/DMSO 4:1 (1:4) • Mix it 5 s by vortexing
(§1) An amount of 1.5 mL stock solution was diluted with 28.5 mL of the respective artificial tears solution (either GenTeal® Tears or Thera® Tears or Visine® tears) in a beaker and stirred for 2 min with a magnet stirrer. The pH value was determined and samples were taken before and after sterile filtration. The solutions were filtered through CA (cellulose acetate) 0.22 µm filter system. The content of the beaker was withdrawn and respectively 14 mL of the prepared formulation were added to two empty 50 mL tubes. In addition, one empty 2 mL tube was provided and 1.5 mL of the prepared formulation was added to the 2 mL tube. The samples were stored at RT and at a temperature in the range of from 2-8° C. over 5 weeks.
(§2) The testing was repeated one time to have samples in duplicate (n=2). An amount of 6 mL of the ophthalmic formulation was withdrawn with a 10 mL syringe. An amount of 1 mL was used to determine the final concentration before filtration. The syringe was connected with a PA 0.2 µm filter via Luer Lok and the solution was filtered. Another sample was taken to determine the final concentration after filtration.
The filter was then disconnected from the syringe and an amount of 3 mL DMSO was withdrawn with the used 10 mL syringe. Then, the syringe was shaken smoothly. An amount of 1 mL was used to determine the final concentration after rinsing. The syringe was again connected to the used PA 0.2 µm filter via Luer Lok the DMSO was filtered. A sample was taken to determine the final concentration after washing.
This protocol was repeated for all tested filters: PA / Nylon, PALE / Nylon, PTFE, PVDF, CM, CA, RC, PP, PES. Each filter contained a filter material with a pore size of 0.2 µm and of 0.45 µm.
as §2, with “repeated” for “repeated one time”, “triplicate (n=3).” for “duplicate (n=2).”, “the” for “a PA 0.2 µm”
The filter was disconnected from the syringe and an amount of 2 mL DMSO was withdrawn with a fresh 10 mL syringe. The syringe was again connected to the used filter via Luer Lok and the DMSO was filtered. […]
(§3) The amount of hydrochloric acid was added as determined in the pre-testing to adjust the pH to 6.0 and a sample was taken to determine the final concentration before filtration. […]

[2] = In-use stability of ophthalmic formulations stored at room temperature and 2-8 °C
Experimental: To study the in-use stability over 5 weeks at room temperature (RT) and at a temperature in the range of from 2° C. - 8° C., stock solutions with a concentration of 1.0 mg/mL of DS were prepared in PEG200 and in PEG400. The different stock solutions were diluted in 3 different compositions of artificial tears to a final concentration of 0.05 mg DS per mL ophthalmic formulation.
as §1, with “weeks. […]” for “weeks.”
To study the impact of the pH value on the tendency of the ophthalmic formulation to degrade and precipitate 3 different compositions of artificial tears were adjusted to pH 4.0, 5.0 and 6.0. A stock solution of Pritelivir free base hemihydrate in PEG400 at a concentration of 1.0 mg/mL was prepared. The stock solutions were diluted in the pH adjusted artificial tears at a Pritelivir free base hemihydrate concentration of 0.05 mg/mL and filtered through a RC 0.2 µm sterile filter. It turned out to be preferable to carry out the dilution step for each sample one after the other to keep the time before the filtration step short.
All samples were prepared as triplicates. One sample was prepared after the other to keep the preparation time short and to minimize the risk of precipitation. The stock solution was diluted with pH adjusted artificial tears solution in a tube and gently mixed. A sample was taken to determine the final concentration. An amount of 20 mL of the tube was withdrawn with a 20 mL syringe. Then, the syringe was connected to the RC […] filter via Luer Lok and the solution was filtered in two portions of 10 mL each into two 50 mL tube. Another sample was taken to determine the final concentration after filtration.
The samples were stored at room temperature and at a temperature in the range of from 2° C.-8° C. over 4 weeks.
To determine an acceptable pH value for ophthalmic use, a stock solution of Pritelivir free base hemihydrate in PEG400 was prepared at a concentration 1.0 mg/mL. […]
as §3

[3] = Preparation of 1 mg/mL PEG400 stock solution and ophthalmic formulation with different drug substances (experiments 8-10); details: for suitability as drug substance for preparation of the ophthalmic formulation: three tested drug substances, experiments 1-10
Experimental: All liquids and the DS were equilibrated to ≥ 20° C. An amount of 20 ml of PEG 400 was added to a 50 mL tube and 20 mg of DS were dissolved therein. The solution was mixed by vortexing the tube for 5 s and the tube was shaken until the DS was dissolved.
To study whether Pritelivir free base hemihydrate can be replaced with Pritelivir mesylate, Experiment 8 was repeated with Pritelivir mesylate monohydrate as DS.
The preparation protocol of Example 8 was followed also for the ophthalmic formulation containing Pritelivir mesylate monohydrate as drug substance.
To study whether Pritelivir free base hemihydrate can be replaced with Pritelivir maleate, Experiment 8 was repeated with Pritelivir maleate as DS.

[4] = Pre-test: PEG 200 stock solutions diluted in GenTeal Tears, visual check for precipitation (Example 1); details: stock solution in PEG 200 diluted with GenTeal tears, visual inspection
Experimental: In order to prepare the new ophthalmic formulation the drug substance concentrations of both i) stock solution and ii) drug product which is administered to the patient need to be determined. For that propose, a stock solution with different concentrations of Pritelivir free base hemihydrate in PEG 200 was diluted in GenTeal® tears and the precipitation was checked over time. All liquids and the DS were equilibrated to ≥ 20° C. Seven 10 mL tubes were provided. In each of these tubes, 5 ml of PEG 200 were added and the required amount of DS was dissolved therein to provide the following stock solutions: 30 mg/mL, 25 mg/mL, 20 mg/mL, 10 mg/mL, 5 mg/mL, 1 mg/mL, 0.05 mg/mL. The solutions were mixed by vortexing the tubes for 5 s and the tubes were shaken until the DS was dissolved. The stock solutions were diluted with GenTeal® tears and the pH value was measured. After that the samples were checked for precipitation by visual inspection.

Compound | assay data before and after filtration ([1]; filter material PFTE 0.2 µm) | assay data before and after filtration ([1]; filter material RC 0.2 µm) | assay content before and after filtration ([1]; Example 6, 1 mg/mL PEG400 stock diluted with GenTeal Tears to 0.05 mg/mL, RC 0.2 µm filter, six samples) | impurities on storage ([2]; Example 6, PEG400 stock diluted with GenTeal Tears, 0.05 mg/mL, after 1 week at room temperature) | time over which samples were stable ([2]; Example 6, PEG400 stock diluted with GenTeal Tears, 0.05 mg/mL, stored at 2-8° C.) | stability in most artificial tears solutions ([2]; pH 4.0) | stability for an ophthalmic formulation ([2]; pH between 6.0 and 7.0, formulation contains glycerin, hypromellose and polyethylene glycol 400) | suitability as drug substance for preparation of the ophthalmic formulation [3] | drug load of ophthalmic formulation obtainable without any visually detectable precipitation [4] | solubility in PEG400 / preparation of stock solution ([3]; at a concentration of 1 mg/mL) | assay level after filtration ([1]; Comparative Example 1, protocol of Example 8, RC 0.2 µm filter) | solubility in PEG400 / preparation of stock solution [3] | precipitation ([3]; Comparative Example 1, protocol of Example 8 (PEG400, Visine Tears, 0.1 M HCl))
Cc1nc(N(C)C(=O)Cc2ccc(-c3ccccn3)cc2)sc1S(N)(=O)=O [Pritelivir free base hemihydrate, N-[5-(aminosulfonyl)-4-methyl-1,3-thiazol-2-yl]-N-methyl-2-[4-(2-pyridinyl)phenyl]acetamide hemihydrate] | identical values | identical values | comparable | increase of impurities | 1 week | not stable | sufficiently stable | suitable | 24 mg/mL |  |  |  | 
Cc1nc(N(C)C(=O)Cc2ccc(-c3ccccn3)cc2)sc1S(N)(=O)=O.O=C(O)/C=C\C(=O)O [Pritelivir maleate, N-[5-(aminosulfonyl)-4-methyl-1,3-thiazol-2-yl]-N-methyl-2-[4-(2-pyridinyl)phenyl]acetamide maleate] |  |  |  |  |  |  |  | insolubility and precipitation problems |  | not possible |  |  | 
N-[5-(amino-sulfonyl)-4-methyl-1,3-thiazol-2-yl]-N-methyl-2-[4-(2-pyridinyl)phenyl] acetamide mesylate monohydrate [Pritelvir mesylate monohydrate] |  |  |  |  |  |  |  | insolubility and precipitation problems |  |  | decreased significantly | not soluble | Precipitation was observed
